Test results taken from article PMC7435877 (Molecules, 2020).
Where two headings read alike, the source gives them in different places.

Assays:
[1] = system: A549; experiment: In vitro antiproliferative activity, SRB assay, A549; assay type: cell-based, human; conditions: for IC50: read-out: Antiproliferative activity IC50, A549
[2] = system: MCF-7; experiment: In vitro antiproliferative activity, SRB assay, MCF-7; assay type: cell-based, human; conditions: for IC50: read-out: Antiproliferative activity IC50, MCF-7
[3] = system: LoVo; experiment: In vitro antiproliferative activity, SRB assay, LoVo; assay type: cell-based, human; conditions: for IC50: 72 h, read-out: Antiproliferative activity IC50, LoVo
[4] = system: LoVo/DX; experiment: In vitro antiproliferative activity, SRB assay, doxorubicin-resistant LoVo/DX; assay type: cell-based, human; conditions: for IC50: 72 h; for Resistance index (RI): RI = IC50 LoVo/DX / IC50 LoVo
[5] = system: BALB/3T3; experiment: In vitro antiproliferative activity, SRB assay, normal fibroblasts BALB/3T3; assay type: cell-based; conditions: normal murine embryonic fibroblast BALB/3T3, 72 h, mean ± SD
[6] = system: A549, MCF-7, LoVo, and LoVo/DX cells; experiment: In vitro antiproliferative activity, SRB assay, summary over the tumor cell lines tested; assay type: cell-based; conditions: Homo sapiens, read-out: IC50, span over all tumor cell lines tested
Excerpt: . Detailed information concerning antiproliferation assay can be found in Supplementary Materials. […]
neutralized with 4M NaOH to pH~10 and extracted four times with EtOAc. The organic layers were combined, washed with brine, dried over Na2SO4, filtered off and evaporated under reduced pressure. The residue was purified using column flash chromatography (silica gel; DCM/MeOH, 20/1 v/v) and next lyophilized from dioxane to give the pure product 3 as a yellow solid with a yield of 73%.
In vitro antiproliferative activity
Cell lines and culturing conditions
Four human cancer cell lines and one murine normal cell line were used to evaluate antiproliferative […]
adenocarcinoma (MCF-7), human colon adenocarcinoma cell lines sensitive and resistant to doxorubicin (LoVo) and (LoVo/DX) respectively, and normal murine embryonic fibroblast cell line (BALB/3T3). The A549 cell line was purchased from the European Collection of Authenticated Cell Cultures (ECACC, Salisbury, UK). The MCF-7, LoVo and LoVo/DX cell lines was purchased from American Type Culture Collection (ATCC, Manassas, VA, USA). All the cell lines are maintained in the Institute of Immunology and Experimental Therapy (IIET), Wroclaw, Poland. […]

[7] = Homo sapiens, LoVo/DX, read-out: Antiproliferative activity IC50, LoVo/DX, doxorubicin-resistant subline LoVo/DX, 72 h, SRB, mean ± SD
[8] = read-out: Antiproliferative activity IC50, LoVo/DX, doxorubicin-resistant subline LoVo/DX, SRB, mean ± SD

Structure (SMILES): CNc1ccc2c(cc1=O)[C@@H](NCCC#N)CCc1cc(OC)c(OC)c(OC)c1-2 [Compound 10]
- IC50 ([1]; Homo sapiens, A549, 72 h): 9 ± 1 nM
- IC50 ([2]; Homo sapiens, MCF7, 72 h): 7.5 ± 0.7 nM
- IC50 ([3]; Homo sapiens, LoVo): 2 ± 0.6 nM
- IC50 [4, 7]: 51.5 ± 8.6 nM
- Resistance index (RI) [4]: 25.9

Structure (SMILES): CCCCCCCCCCN[C@H]1CCc2cc(OC)c(OC)c(OC)c2-c2ccc(NC)c(=O)cc21 [Compound 7]
- IC50 ([1]; Homo sapiens, A549, 72 h): 88.4 ± 3.2 nM
- IC50 ([2]; Homo sapiens, MCF7, 72 h): 75.2 ± 10.8 nM
- IC50 ([3]; Homo sapiens, LoVo): 46.6 ± 15.5 nM
- IC50 [4, 7]: 99.5 ± 35.5 nM
- Resistance index (RI) [4]: 2.1

Structure (SMILES): CNc1ccc2c(cc1=O)[C@@H](NCc1cccs1)CCc1cc(OC)c(OC)c(OC)c1-2 [Compound 17]
- IC50 ([1]; Homo sapiens, A549, 72 h): 9.4 ± 0.5 nM
- IC50 ([2]; Homo sapiens, MCF7, 72 h): 9.3 ± 0.6 nM
- IC50 ([3]; Homo sapiens, LoVo): 0.9 ± 0.3 nM
- Selectivity index (SI), LoVo ([3]; SI = IC50 BALB/3T3 / IC50 LoVo): > 3
- IC50 [4, 7]: ≤ 10 nM
- Resistance index (RI) [4]: 8.9
- IC50 [4, 8]: 7.9 ± 1 nM

Structure (SMILES): CCN[C@H]1CCc2cc(OC)c(OC)c(OC)c2-c2ccc(NC)c(=O)cc21 [Compound 4]
- IC50 ([1]; Homo sapiens, A549, 72 h): 9.4 ± 3.2 nM
- IC50 ([2]; Homo sapiens, MCF7, 72 h): 8.7 ± 3.3 nM
- IC50 ([3]; Homo sapiens, LoVo): 7.3 ± 2.5 nM
- IC50 [4, 7]: 62 ± 7.5 nM
- Resistance index (RI) [4]: 8.5

Structure (SMILES): CNc1ccc2c(cc1=O)[C@@H](NCCCCl)CCc1cc(OC)c(OC)c(OC)c1-2 [Compound 11]
- IC50 ([1]; Homo sapiens, A549, 72 h): 8.4 ± 2.2 nM
- IC50 ([2]; Homo sapiens, MCF7, 72 h): 7.6 ± 2.8 nM
- IC50 ([3]; Homo sapiens, LoVo): 1.3 ± 0.3 nM
- IC50 [4, 7]: 12.8 ± 3.3 nM
- Resistance index (RI) [4]: 10.0

Structure (SMILES): CNc1ccc2c(cc1=O)C(NC(C)=O)CCc1cc(OC)c(OC)c(OC)c1-2 (stereo not shown) [Compound 2, 10-N-methylaminocolchicine]
- IC50 ([1]; Homo sapiens, A549, 72 h): 7.2 ± 1.3 nM
- IC50 ([3]; Homo sapiens, LoVo): 1.2 ± 0.2 nM

Structure (SMILES): CCCCN[C@H]1CCc2cc(OC)c(OC)c(OC)c2-c2ccc(NC)c(=O)cc21 [Compound 6]
- IC50 ([1]; Homo sapiens, A549, 72 h): 8.1 ± 2.6 nM
- IC50 ([2]; Homo sapiens, MCF7, 72 h): 8.7 ± 3.1 nM
- IC50 ([3]; Homo sapiens, LoVo): 7.8 ± 1.3 nM
- IC50 [4, 7]: 13.3 ± 5.8 nM
- Resistance index (RI) [4]: 1.7

Structure (SMILES): CNc1ccc2c(cc1=O)[C@@H](NCc1ccncc1)CCc1cc(OC)c(OC)c(OC)c1-2 [Compound 16]
- IC50 ([1]; Homo sapiens, A549, 72 h): 8.9 ± 1.7 nM
- IC50 ([2]; Homo sapiens, MCF7, 72 h): 9.6 ± 1.8 nM
- IC50 ([3]; Homo sapiens, LoVo): 5.2 ± 1.9 nM
- IC50 [4, 7]: 48.1 ± 14.5 nM
- Resistance index (RI) [4]: 9.3

Structure (SMILES): N.N.[Cl][Pt][Cl] [Cisplatin, cisplatin, reference compound]
- IC50 [5]: 3970 ± 995 nM
- IC50 ([1]; human lung adenocarcinoma A549, 72 h, SRB, mean ± SD): 4920 ± 1850 nM
- IC50 ([2]; human breast adenocarcinoma MCF-7, 72 h, SRB, mean ± SD): 5810 ± 2610 nM
- IC50 ([3]; human colon adenocarcinoma LoVo, SRB, mean ± SD): 5460 ± 1410 nM
- Resistance index (RI) [4]: 0.9
- IC50 ([4]; doxorubicin-resistant subline LoVo/DX, SRB, mean ± SD, read-out: Antiproliferative activity IC50, LoVo/DX): 5010 ± 1560 nM

Structure (SMILES): CNc1ccc2c(cc1=O)[C@@H](N)CCc1cc(OC)c(OC)c(OC)c1-2 [Compound 3, N-deacetyl-10-methylamino-10-demethoxycolchicine]
- IC50 ([1]; Homo sapiens, A549, 72 h): 8.6 ± 3.9 nM
- IC50 ([2]; Homo sapiens, MCF7, 72 h): 9.8 ± 4.5 nM
- IC50 ([3]; Homo sapiens, LoVo): 7.4 ± 2.7 nM

Structure (SMILES): CNc1ccc2c(cc1=O)[C@@H](NCCC(F)(F)F)CCc1cc(OC)c(OC)c(OC)c1-2 [Compound 12]
- IC50 ([1]; Homo sapiens, A549, 72 h): 9.5 ± 0.2 nM
- IC50 ([2]; Homo sapiens, MCF7, 72 h): 9 ± 1.7 nM
- IC50 ([3]; Homo sapiens, LoVo): 2.3 ± 1.3 nM
- IC50 [4, 7]: 8.2 ± 0.6 nM
- Resistance index (RI) [4]: 3.6

Structure (SMILES): CCCN[C@H]1CCc2cc(OC)c(OC)c(OC)c2-c2ccc(NC)c(=O)cc21 [Compound 5]
- IC50 ([1]; Homo sapiens, A549, 72 h): 10.5 ± 0.7 nM
- IC50 ([2]; Homo sapiens, MCF7, 72 h): 10.4 ± 0.6 nM
- IC50 ([3]; Homo sapiens, LoVo): 5 ± 0.1 nM
- IC50 [4, 7]: 17.2 ± 6.7 nM
- Resistance index (RI) [4]: 3.5

Structure (SMILES): CNc1ccc2c(cc1=O)[C@@H](NCc1ccccc1)CCc1cc(OC)c(OC)c(OC)c1-2 [Compound 13]
- IC50 ([1]; Homo sapiens, A549, 72 h): 4.6 ± 1.8 nM
- IC50 ([2]; Homo sapiens, MCF7, 72 h): 7.3 ± 4.4 nM
- IC50 ([3]; Homo sapiens, LoVo): 0.9 ± 0.4 nM
- IC50 [4, 7]: 6 ± 0.8 nM
- Resistance index (RI) [4]: 7.0

Structure (SMILES): CNc1ccc2c(cc1=O)[C@@H](NCCO)CCc1cc(OC)c(OC)c(OC)c1-2 [Compound 9]
- IC50 ([1]; Homo sapiens, A549, 72 h): 9.2 ± 2.2 nM
- IC50 ([2]; Homo sapiens, MCF7, 72 h): 10.1 ± 1.2 nM
- IC50 ([3]; Homo sapiens, LoVo): 5.6 ± 1.5 nM
- IC50 [4, 7]: 132 ± 37.5 nM
- Resistance index (RI) [4]: 23.6

Structure (SMILES): CNc1ccc2c(cc1=O)[C@@H](NCc1ccc(O)cc1)CCc1cc(OC)c(OC)c(OC)c1-2 [Compound 15]
- IC50 ([1]; Homo sapiens, A549, 72 h): 8.9 ± 1.4 nM
- IC50 ([2]; Homo sapiens, MCF7, 72 h): 8.5 ± 0.9 nM
- IC50 ([3]; Homo sapiens, LoVo): 5.2 ± 0.5 nM
- IC50 [4, 7]: 72.2 ± 12.5 nM
- Resistance index (RI) [4]: 13.9

Structure (SMILES): CNc1ccc2c(cc1=O)[C@@H](NCc1ccccc1Cl)CCc1cc(OC)c(OC)c(OC)c1-2 [Compound 14, N-(2-chlorobenzyl)-10-methylaminocolchicine]
- IC50 ([1]; Homo sapiens, A549, 72 h): 1.1 ± 0.7 nM
- Selectivity index (SI), A549 ([1]; SI = IC50 BALB/3T3 / IC50 A549): 4.1
- IC50 ([2]; Homo sapiens, MCF7, 72 h): 0.7 ± 0.4 nM
- Selectivity index (SI), MCF-7 ([2]; SI = IC50 BALB/3T3 / IC50 MCF-7): 6.1
- IC50 [6]: 0.1 to 1.6 nM
- IC50 ([3]; Homo sapiens, LoVo): 0.1 ± 0.02 nM
- IC50 [4, 7]: 1.6 ± 1 nM
- Selectivity index (SI), LoVo/DX ([4]; SI = IC50 BALB/3T3 / IC50 LoVo/DX): 2.8
- Potency relative to unmodified colchicine 1, LoVo/DX ([4]; times more potent than 1 towards LoVo/DX): approx. 440 times

Structure (SMILES): CNc1ccc2c(cc1=O)[C@@H](NCC(C)C)CCc1cc(OC)c(OC)c(OC)c1-2 [Compound 8]
- IC50 ([1]; Homo sapiens, A549, 72 h): 9.6 ± 1.3 nM
- IC50 ([2]; Homo sapiens, MCF7, 72 h): 9.7 ± 1.5 nM
- IC50 ([3]; Homo sapiens, LoVo): 7.8 ± 1 nM
- IC50 [4, 7]: ≤ 10 nM
- Resistance index (RI) [4]: 1.1
- IC50 [4, 8]: 8.5 ± 1.1 nM
